Results reported in ChEMBL document CHEMBL3091424, “Anti-tubercular agents. Part 8: synthesis, antibacterial and antitubercular activity of 5-nitrofuran based 1,2,3-triazoles” (Bioorg Med Chem Lett, 2013).
≈ marks a conversion by molar mass, not a printed value. Calls of active or inactive are those of the source. The calls are words filed in the database; no cut-off is given here.

Key:
[1] = tested on: Bacillus subtilis; experiment: Antimicrobial activity against Bacillus subtilis MTCC 121 after 24 hrs by well diffusion method; assay type: functional; details: MTCC 121, 24 h
[2] = tested on: Staphylococcus aureus; experiment: Antibiofilm activity against Staphylococcus aureus MLS-16 MTCC 2940 after 24 hrs by crystal violet assay; assay type: functional, organism-based; details: MLS-16 MTCC 2940, 24 h
[3] = tested on: Staphylococcus aureus; experiment: Bactericidal activity against Staphylococcus aureus MTCC 96 after 24 hrs; assay type: functional; details: MTCC 96, 24 h
[4] = tested on: Candida albicans; experiment: Antimicrobial activity against Candida albicans MTCC 3017 at 150 ug/ml after 24 hrs by well diffusion method; assay type: functional, organism-based
[5] = tested on: Pseudomonas aeruginosa; experiment: Bactericidal activity against Pseudomonas aeruginosa MTCC 2453 after 24 hrs; assay type: functional; details: MTCC 2453, 24 h
[6] = tested on: Bacillus subtilis; experiment: Bactericidal activity against Bacillus subtilis MTCC 121 after 24 hrs; assay type: functional; details: MTCC 121, 24 h
[7] = tested on: Pseudomonas aeruginosa; experiment: Antimicrobial activity against Pseudomonas aeruginosa MTCC 2453 after 24 hrs by well diffusion method; assay type: functional; details: MTCC 2453, 24 h
[8] = tested on: Micrococcus luteus; experiment: Antimicrobial activity against Micrococcus luteus MTCC 2470 after 24 hrs by well diffusion method; assay type: functional; details: MTCC 2470, 24 h
[9] = tested on: Escherichia coli; experiment: Bactericidal activity against Escherichia coli MTCC 739 after 24 hrs; assay type: functional; details: MTCC 739, 24 h
[10] = tested on: Staphylococcus aureus; experiment: Antimicrobial activity against Staphylococcus aureus MLS-16 MTCC 2940 after 24 hrs by well diffusion method; assay type: functional; details: MLS-16 MTCC 2940, 24 h
[11] = tested on: Raoultella planticola; experiment: Bactericidal activity against Klebsiella planticola MTCC 530 after 24 hrs; assay type: functional; details: MTCC 530, 24 h
[12] = tested on: Staphylococcus aureus; experiment: Antibiofilm activity against Staphylococcus aureus MTCC 96 after 24 hrs by crystal violet assay; assay type: functional, organism-based; details: for IC50: MTCC 96, 24 h
[13] = tested on: Raoultella planticola; experiment: Antibiofilm activity against Klebsiella planticola MTCC 530 after 24 hrs by crystal violet assay; assay type: functional, organism-based; details: for IC50: MTCC 530, 24 h
[14] = tested on: Mycobacterium tuberculosis; experiment: Antimicrobial activity against Mycobacterium tuberculosis H37Rv after 3 weeks by broth dilution method; assay type: functional; details: for MIC: 504 h
[15] = tested on: Vero; experiment: Cytotoxicity against african green monkey Vero cells; assay type: cell-based; details: Chlorocebus sabaeus
[16] = tested on: Micrococcus luteus; experiment: Bactericidal activity against Micrococcus luteus MTCC 2470 after 24 hrs; assay type: functional; details: MTCC 2470, 24 h
[17] = tested on: Staphylococcus aureus; experiment: Bactericidal activity against Staphylococcus aureus MLS-16 MTCC 2940 after 24 hrs; assay type: functional; details: MLS-16 MTCC 2940, 24 h
[18] = tested on: Raoultella planticola; experiment: Antimicrobial activity against Klebsiella planticola MTCC 530 after 24 hrs by well diffusion method; assay type: functional; details: MTCC 530, 24 h
[19] = tested on: Escherichia coli; experiment: Antimicrobial activity against Escherichia coli MTCC 739 after 24 hrs by well diffusion method; assay type: functional; details: MTCC 739, 24 h
[20] = tested on: Staphylococcus aureus; experiment: Antimicrobial activity against Staphylococcus aureus MTCC 96 after 24 hrs by well diffusion method; assay type: functional; details: MTCC 96, 24 h
[21] = tested on: MRC5; experiment: Cytotoxicity against human MRC5 cells; assay type: cell-based
[22] = tested on: Staphylococcus aureus; experiment: Antimicrobial activity against methicillin-resistant Staphylococcus aureus after 24 hrs by microdilution method; assay type: functional
[23] = tested on: Enterococcus faecalis; experiment: Antimicrobial activity against vancomycin -resistant Enterococcus faecalis after 24 hrs by microdilution method; assay type: functional

Structure (SMILES)	MIC [1] [µg/mL]	IC50 [2] [µg/mL]	MBC [3] [µg/mL]	Activity [4]	MBC [5] [µg/mL]	MBC [6] [µg/mL]	MIC [7] [µg/mL]	MIC [8] [µg/mL]	MBC [9] [µg/mL]	MIC [10] [µg/mL]	MBC [11] [µg/mL]	IC50 [13] [µg/mL]	Activity [14]	IC50 [15] [µM]	MBC [16] [µg/mL]	MBC [17] [µg/mL]	MIC [18] [µg/mL]	MIC [19] [µg/mL]	MIC [20] [µg/mL]	IC50 [21] [µM]	other results
COc1ccc(Cn2cc(CNC(=O)c3ccc([N+](=O)[O-])o3)nn2)cc1F	2.34 (≈ 6.23 µM)	3.4 (≈ 9.06 µM)	> 150	inactive	> 150	4.68 (≈ 12.5 µM)	> 150	4.68 (≈ 12.5 µM)	> 150	4.68 (≈ 12.5 µM)	18.8 (≈ 50 µM)	9.8 (≈ 26.1 µM)	inactive	312	9.37 (≈ 25 µM)	9.37 (≈ 25 µM)	18.8 (≈ 50 µM)	> 150	> 150	324	inhibition [12]: inactive
COc1ccc(Cn2cc(CNC(=O)c3ccc([N+](=O)[O-])o3)nn2)cc1[N+](=O)[O-]	2.34 (≈ 5.82 µM)	4.1 (≈ 10.2 µM)	> 150	inactive	> 150	2.34 (≈ 5.82 µM)	> 150	4.68 (≈ 11.6 µM)	18.8 (≈ 46.6 µM)	4.68 (≈ 11.6 µM)	18.8 (≈ 46.6 µM)	6.1 (≈ 15.2 µM)	–	176	9.37 (≈ 23.3 µM)	4.68 (≈ 11.6 µM)	9.37 (≈ 23.3 µM)	18.8 (≈ 46.6 µM)	> 150	198	IC50 [12]: 91.2 µg/mL (≈ 227 µM); MIC [14]: 16 µg/mL (≈ 39.8 µM); MIC [22]: 8 µg/mL (≈ 19.9 µM); MIC [23]: > 64 µg/mL
COc1cc(Cn2cc(CNC(=O)c3ccc([N+](=O)[O-])o3)nn2)ccc1F	2.34 (≈ 6.23 µM)	2.7 (≈ 7.19 µM)	> 150	inactive	> 150	4.68 (≈ 12.5 µM)	> 150	1.17 (≈ 3.12 µM)	> 150	9.37 (≈ 25 µM)	37.5 (≈ 99.9 µM)	22.7 (≈ 60.5 µM)	inactive	225	1.17 (≈ 3.12 µM)	9.37 (≈ 25 µM)	37.5 (≈ 99.9 µM)	> 150	> 150	155	inhibition [12]: inactive
COc1ccc(Cn2cc(CNC(=O)c3ccc([N+](=O)[O-])o3)nn2)cc1O	9.37 (≈ 25.1 µM)	5.1 (≈ 13.7 µM)	75 (≈ 201 µM)	inactive	> 150	18.8 (≈ 50.2 µM)	> 150	9.37 (≈ 25.1 µM)	75 (≈ 201 µM)	9.37 (≈ 25.1 µM)	18.8 (≈ 50.2 µM)	11.3 (≈ 30.3 µM)	inactive	174	9.37 (≈ 25.1 µM)	18.8 (≈ 50.2 µM)	18.8 (≈ 50.2 µM)	37.5 (≈ 100 µM)	37.5 (≈ 100 µM)	189	IC50 [12]: 10.3 µg/mL (≈ 27.6 µM)
O=C(NCc1cn(Cc2ccc(C(F)(F)F)cc2)nn1)c1ccc([N+](=O)[O-])o1	1.17 (≈ 2.96 µM)	8.4 (≈ 21.2 µM)	> 150	inactive	> 150	4.68 (≈ 11.8 µM)	> 150	2.34 (≈ 5.92 µM)	> 150	2.34 (≈ 5.92 µM)	> 150	–	inactive	289	2.34 (≈ 5.92 µM)	2.34 (≈ 5.92 µM)	> 150	> 150	> 150	321	IC50 [12]: 64.7 µg/mL (≈ 164 µM); inhibition [13]: inactive
CC[C@H]1OC(=O)[C@H](C)[C@@H](O[C@H]2C[C@@](C)(OC)[C@@H](O)[C@H](C)O2)[C@H](C)[C@@H](O[C@@H]2O[C@H](C)C[C@H](N(C)C)[C@H]2O)[C@](C)(O)C[C@@H](C)C(=O)[C@H](C)[C@@H](O)[C@]1(C)O [ERYTHROMYCIN]	–	0.21 (≈ 0.286 µM)	–	–	–	–	–	–	–	–	–	0.19 (≈ 0.259 µM)	–	–	–	–	–	–	–	–	IC50 [12]: 0.25 µg/mL (≈ 0.341 µM)
CC(=O)NC[C@H]1CN(c2ccc(N3CCOCC3)c(F)c2)C(=O)O1 [LINEZOLID]	–	–	–	–	–	–	–	–	–	–	–	–	–	–	–	–	–	–	–	–	MIC [14]: 1 µg/mL (≈ 2.96 µM); MIC [22]: 8 µg/mL (≈ 23.7 µM)
O=C(O)c1cn(C2CC2)c2cc(N3CCNCC3)c(F)cc2c1=O [CIPROFLOXACIN]	0.58 (≈ 1.75 µM)	–	0.58 (≈ 1.75 µM)	–	0.58 (≈ 1.75 µM)	1.17 (≈ 3.53 µM)	0.58 (≈ 1.75 µM)	0.58 (≈ 1.75 µM)	0.58 (≈ 1.75 µM)	0.58 (≈ 1.75 µM)	1.17 (≈ 3.53 µM)	–	–	192	0.58 (≈ 1.75 µM)	1.17 (≈ 3.53 µM)	0.58 (≈ 1.75 µM)	0.58 (≈ 1.75 µM)	0.58 (≈ 1.75 µM)	181	–
COc1ccc(Cn2cc(CNC(=O)c3ccc([N+](=O)[O-])o3)nn2)cc1	2.34 (≈ 6.55 µM)	6.1 (≈ 17.1 µM)	75 (≈ 210 µM)	inactive	> 150	4.68 (≈ 13.1 µM)	> 150	2.34 (≈ 6.55 µM)	75 (≈ 210 µM)	9.37 (≈ 26.2 µM)	37.5 (≈ 105 µM)	24 (≈ 67.2 µM)	inactive	274	2.34 (≈ 6.55 µM)	9.37 (≈ 26.2 µM)	37.5 (≈ 105 µM)	75 (≈ 210 µM)	37.5 (≈ 105 µM)	146	IC50 [12]: 12.6 µg/mL (≈ 35.3 µM)
